In patent publication US7235263B2, “Processes for controlling microbial organic compound production” (Kimberly-Clark Worldwide, Inc., priority 2001, dated 2007):

Key:
E. coli (ATCC 8739) [1] = test: Bacterial yield of facultatively grown E. coli in urine:TSB; format: cell-based; conditions: Table 6, facultative E. coli in urine:TSB
Method: (§1) Proteus mirabilis (ATCC 29906) were recovered from frozen state by growing the appropriate bacterial coated MicroBank Bead (Pro Lab, Austin Tex.) in 10 mL trypticase soy broth (TSB, Difco, Ann Arbor, Mich.) in a 15 mL sterile loosely tightened screw capped conical tube overnight at 37° C. The tube was held stationary. (E. coli (ATCC 8739), utilized in Example 6 herein, was recovered using the same procedure described herein for Proteus mirabilis). Upon observation of turbidity, the bacterial suspension was checked for purity by isolation plate and Gram stain. Once determined that the isolate was Proteus mirabilis (or E. coli in Example 6), a colony from the isolation plate was transferred to 10 mL of TSB in a 15 mL sterile screw capped conical tube and incubated overnight at 37° C. under facultative conditions. Samples of bacterial suspension resulting from this overnight TSB culture were used to initiate all experiments utilizing Proteus mirabilis bacteria (or E. coli in Example 6).
The four samples were prepared identically to the four samples in Example 5 with the exception that facultatively grown E. coli was utilized as the bacteria in place of the Proteus mirabilis bacteria. The process for growing facultatively grown E. coli is set forth in Example 1.
After incubation, each sample was analyzed for EPIOCULAR viability and bacterial cell count as set forth in Example 1. […]

interleukin-8 (IL-8) = test: IL-8 release by EPIOCULAR skin culture challenged with sample; format: cell-based, human; conditions: for IL-8: Table 5, 6 hours; for IL-8 (n = 3): Table 6
Source text: In order to evaluate the amount of skin irritation by various samples prepared in the Examples, a human skin culture was selected to model the response of the human epidermis to treated and untreated bacterial metabolized urine:TSB mixture. The tissue model selected was an EPIOCULAR Tissue Model (OCL-200 propagated without hydrocortisone), and was purchased from MatTek Corporation (Ashland, Mass.). This model consists of normal, human-derived epidermal keratinocytes, which have been cultured to form a stratified, squamous epithelium similar to that found in the cornea. The epidermal cells, which are cultured on specially prepared cell culture inserts using a serum free medium, differentiate to form a multi-layered structures which closely parallel the corneal epithelium. Experiments using this skin culture were conducted in six parallel wells. Each well contained one milliliter of pre-warmed media that was the same as the model skin culture media. The plates were then incubated in a 37° C., 5% carbon dioxide atmosphere for thirty minutes. After incubation, 25 microliters of the sample were applied to the surface of the model skin culture after removing any residual media. After application of the test solution, the well plates were incubate for 6 hours in the 37° C., 5% carbon dioxide atmosphere. At the end of 6 hours, the well plates were removed from the incubator and the underlying media removed and stored at −80° C. The response of the skin culture to test the compositions/control and the insult solution is determined by measuring the amount of interleukin-1 alpha (IL-1a) and/or interleukin-8 (IL-8). IL-1a and IL-8 were quantified using an Interleukin-1 alpha or Interleukin-8 Quantikine Kit available from R&D Systems (Minneapolis, Minn.).

[2] = tested on: Proteus mirabilis (ATCC 29906); test: Bacterial yield of facultatively grown Proteus mirabilis in urine:TSB (from optical density); format: cell-based; conditions: for Bacterial Yields: facultative
Method: as §1
Proteus mirabilis was taken from a TSB culture (described in (1) above) and grown under various conditions for use in the Examples. For bacteria to be grown under aerobic conditions, 50 microliters of Proteus mirabilis was taken from a TSB culture prepared as described above and inoculated into a 50 mL volume of a freshly made 9:1 (by volume) pooled adult female urine:TSB mixture into a 250 mL shake flask. This mixture was rotated at 250 rpm at 37° C. overnight to grow the bacteria. For bacteria to be grown under facultative conditions, 10 microliters of Proteus mirabilis was taken from a TSB culture prepared as described above and inoculated into a 10 mL volume of a freshly made 9:1 (by volume) pooled adult female urine:TSB mixture into a 15 mL tube. The tube was loosely fitted with a screw cap, and held stationary at 37° C. overnight to grow the bacteria. For bacteria to be grown under anaerobic conditions, 10 microliters of Proteus mirabilis was taken from a TSB culture prepared as described above and inoculated into a 10 mL volume of a freshly made 9:1 (by volume) pooled adult female urine:TSB mixture into a 15 mL conical tube. The tube was purged with nitrogen and a screw cap tightly closed, and then was held stationary overnight at 37° C. to grow the bacteria.
In this Example, five samples were prepared and analyzed to determine: (1) Bacterial Yield (CFU/mL) calculated from optical density; (3) Percent viability of EPIOCULAR; and (4) EPIOCULAR IL-8. The samples included: (1) Deionized Water; (2) A urine:TSB mixture (9:1 by volume) as described above; (3) A urine:TSB mixture containing Proteus mirabilis bacteria grown under aerobic conditions as described above; (4) A urine:TSB mixture containing Proteus mirabilis bacteria grown under facultative conditions as described above; and (5) A urine:TSB mixture containing Proteus mirabilis bacteria grown under anaerobic conditions as described above.
In this Example, six different samples were prepared for analysis. The first sample comprised a urine:TSB mixture that was prepared in the same manner as that described in Example 1. […] The tube was loosely fitted with a screw cap, and held stationary at 37° C. overnight to grow the bacteria. […] The fifth sample comprising urine:TSB:Proteus mirabilis (facultatively grown) was prepared in the same manner as that described in Example 1.

E. coli (ATCC 8739) [3] = test: Ammonia in urine:TSB with facultatively grown E. coli; format: cell-based; conditions: Table 6, facultative E. coli
Method: Upon completion of the respective incubation periods of the samples, optical density measurements of each sample were taken as described above and ammonia production of the growth solutions was measured using an ammonia combination probe (Beckman, Fullerton, Calif.) by record mV using an Orion pH meter (Orion, Boston, Mass.). Orion ammonia standards (Orion) were used to calibrate the instrument. The four samples were prepared identically to the four samples in Example 5 with the exception that facultatively grown E. coli was utilized as the bacteria in place of the Proteus mirabilis bacteria. The process for growing facultatively grown E. coli is set forth in Example 1.

mannitol peroxide
Bacterial Yields (E. coli (ATCC 8739) [1]; 5% MP): 2.14E+9 CFU/mL | Bacterial Yields (E. coli (ATCC 8739) [1]; 10% MP): 4.98E+9 CFU/mL | IL-8 (interleukin-8 (IL-8); facultative Proteus mirabilis grown with 5% mannitol peroxide): 27224.30 ± 2432.83 pg/mL | IL-8 (interleukin-8 (IL-8); facultative Proteus mirabilis grown with 10% mannitol peroxide): 15884.57 ± 839.53 pg/mL | IL-8 (n = 3) (interleukin-8 (IL-8); facultative E. coli grown with 5% MP): 1769.31 ± 103.9 pg/mL | IL-8 (n = 3) (interleukin-8 (IL-8); facultative E. coli grown with 10% MP): 1336.69 ± 60.84 pg/mL | impact on the growth of the cells ([2]; 5% and 10% mannitol peroxide, facultative Proteus mirabilis (Table 4)): very little, if any, impact on the growth of the cells | Bacterial Yields ([2]; Table 3, 5% (w/v) mannitol peroxide, urine:TSB, 37° C. overnight): 1.30E+9 CFU/mL | Bacterial Yields ([2]; Table 3, 10% mannitol peroxide, urine:TSB, 37° C. overnight): 8.20E+8 CFU/mL | Bacterial Yields ([2]; Table 4, 5% mannitol peroxide): 1.30E+9 CFU/mL | Bacterial Yields ([2]; Table 4, 10% mannitol peroxide): 8.2E+8 CFU/mL | Bacterial Yields ([2]; Table 5, 5% (w/v) mannitol peroxide): 1.30E+9 CFU/mL | Bacterial Yields ([2]; Table 5, 10% (w/v) mannitol peroxide): 8.20E+8 CFU/mL | Bacterial Yields ([2]; Table 7, 5% mannitol peroxide): 8.93E+8 CFU/mL | Ammonia (E. coli (ATCC 8739) [3]; 5% MP): 12.46 ppm | Ammonia (E. coli (ATCC 8739) [3]; 10% MP): 14.04 ppm
